Test results: patent US20070060605A1, “Compositions and methods for inhibiting platelet activation and thrombosis” (priority 2001, published 2007)
pIC50: −log10 of the molar value. Where two headings read alike, the source gives them in different places.

How the values were obtained:
[1] = biological target: platelet cGMP-inhibited phosphodiesterase (Homo sapiens, UniProt Q14432); details: Omburo et al., 1995; cited from earlier work
platelets = experiment: Agonist-induced platelet granule secretion / activation (P-selectin expression by flow cytometry; ADP/ATP release); assay type: cell-based, human
Protocol: In order to monitor ATP release, a cocktail of 100 μM SFLLR (synthesized using solid phase Fmoc chemistry on an Applied Biosystems model 430A peptide synthesizer) and 3 mg/ml of luciferin/luciferase (Sigma, St. Louis, Mo.) in a volume of 10 μl is added to 20 μl of PRP. Samples are immediately analyzed for luminescence. Activated platelets supply the ATP necessary for luminescence of the luciferin/luciferase assay. Assays can be performed at high throughput through use of a microtiter plate system, e.g., 384-well plates and a Multidrop 384 (Thermo Labsystems, Helsinki), read with a high density imaging system, e.g., the Tundra system (Imaging Research, St. Catherine's, Ontario).
In order to assay platelet activation by cell surface marker expression, fresh PRP is isolated from donors who have not ingested aspirin for two weeks prior to donation. PRP (40 μl) is incubated with known or suspected inhibitor in DMSO or DMSO alone for 15 min. The sample is then incubated with the indicated agonist (e.g., SFLLR) for 10 min. Following incubation of the sample with the indicated agonist, 10 μl of reaction mixture is transferred to 5 μl of phycoerythrin (PE)-conjugated AC 1.2 anti-P-selectin antibody (for assessment of P-selectin surface expression) or fluorescein isothiocyanate (FITC)-conjugated PAC-1 antibody (for assessment of GPIIbIIIa activation). PBS (500 μl) is added to the sample after a 20 min incubation and the platelets are analyzed immediately by flow cytometry. Flow cytometry can be performed using, for example, a Becton-Dickinson FACSCalibur flow cytometer or its equivalent. Fluorescent channels are set at logarithmic gain. Ten thousand particles are acquired for each sample. A 530/30 band pass filter is used for FL-1 fluorescence. A 585/42 band pass filter is used for FL-2 fluorescence. FITC is measured in the FL-1 channel and PE is measured in the FL-2 channel. Data are analyzed using, for example, CellQuest software on a Macintosh PowerPC, or their equivalents.
Compounds were tested for the ability to inhibit agonist-induced ADP/ATP release from platelet dense granules using a luciferin-luciferase reporter system. In this assay, compounds were incubated with platelet-rich plasma (PRP) for 30 min. A cocktail of the platelet agonist and luciferin-luciferase was then added to the wells. Plates were immediately analyzed using a Tundra high density luminescence imager. […] As a control, compounds were also screened in a platelet-free assay for the ability to inhibit luciferin-luciferase upon exposure to ATP.
Each of the compounds was tested for inhibition of platelet activation in response to the agonists SFLLR (a thrombin mimic), U46619 (a thromboxane A2 mimic), ADP and the phorbol ester PMA.
Compounds were also tested by flow cytometry for the inhibition of SFLLR-induced GPIIbIIIa activation and P-selectin expression. In these experiments, freshly obtained PRP was prepared from healthy volunteers who had not ingested aspirin for two weeks prior to donation. Forty μl of PRP was incubated with inhibitor in DMSO or DMSO alone for 15 min. The sample was then incubated with the indicated agonist for 10 min. Following incubation of the sample with the indicated agonist, 10 μl of reaction mixture was transferred to 5 μl of PE-conjugated AC1.2 anti-P-selectin antibody (for assessment of P-selectin surface expression) or FITC-conjugated PAC-1 antibody (for assessment of GPIIbIIIa activation). PBS (500 μl) was added to the sample after a 20 min incubation and the platelets were analyzed immediately by flow cytometry. Flow cytometry was performed using a Becton-Dickinson FACSCalibur flow cytometer. Fluorescent channels were set at logarithmic gain. Ten thousand particles were acquired for each sample. A 530/30 band pass filter was used for FL-1 fluorescence. A 585/42 band pass filter was used for FL-2 fluorescence. FITC was measured in the FL-1 channel and PE was measured in the FL-2 channel.

[2] = test system: platelet accumulation into thrombus; assay type: in vivo; details: bolus 6 mg/kg/5 min then continuous infusion 3 mg/kg/90 min; P<0.01
Description: A preferred animal model involves intravital microscopy of laser-induced thrombi. The method is described by Rosen et al., 2001, Am J Pathol 158, 1613-1622, which is incorporated herein by reference. Minor variations of that method were employed as described below.
Experimental mice are pre-anesthetized and surgically prepared. A tracheal tube is placed to facilitate breathing and the jugular vein is canulated to allow for maintenance of anesthetic and introduction of compound. The cremaster muscle is then exteriorized. The muscle is affixed over a glass slide, allowing illumination from below. A steady drip of a sodium-bicarbonate buffered salt solution is maintained throughout the experiment to keep the exposed muscle moist. Blood flow in the muscle is visualized using a 40× water immersion lens and epi-illuminated with an appropriately filtered light source. Alexa 488-labeled anti-mouse CD41 antibody is injected through the jugular canulus to label platelets in vivo.
Thrombosis is initiated by damaging the vessel wall (of a 30 μm vessel) with a laser pulse from a MicroPoint LASER attached to the microscope. A LASER pulse is delivered, causing damage in an area smaller than 1 μm. The recruitment of platelets to the thrombus is then monitored by the accumulation of (activated) Alexa 488-labeled platelets at the ablation site using fluorescence microscopy, and the process is recorded digitally. The method thus permits in vivo analysis of platelet activation as measured by platelet aggregation and thrombosis.
The degree of embolization in an untreated mouse can be quantified using software for image analysis, e.g., BioQuant True Color Windows (Biometrics, Nashville, Tenn.), as described in Rosen et al., 2001, supra. The software package permits the determination of the “integrated optical density” or IOD of the thrombus.
Using quantitative intravital fluorescence videomicroscopy with high temporal resolution (111 images/second), the effect of PDE3 inhibition on the platelet recruitment into thrombi was directly observed over time. Platelets were fluorescently labeled by infusing rat-anti-mouse CD41 and Alexa 488-anti-rat IgG through a cannulated jugular vein. The cremaster microvasculature was exposed and mapped and suitable arteriole segments were selected for laser-induced injury. A series of control injuries were generated prior to infusion of the inhibitory compound. The power and the number of laser pulses required to generate each thrombus was recorded. Platelet accumulation to the thrombi following laser ablation was recorded using digital videomicroscopy. The thrombus total fluorescence in each frame of the videos was analyzed using Slidebook software for digital videomicroscopy. The pyridazinone compound was then infused. Following a 15 minute incubation, a series of experimental injuries were generated 250 μm proximal, with relationship to blood flow, of the first injury and the resultant thrombi were recorded. The power and the number of pulses required to induce the control thrombus was used to induce the experimental thrombus. The control and experimental thrombi constituting a pair were compared for statistical analysis. The total fluorescence intensity of the thrombi before and after the infusion of pyridazinone compound was recorded.
Images from a representative experiment of the recruitment of fluorescently-labeled […] platelets into a growing thrombus over time is shown in FIG. 9A.

[3] = patients suffering intermittent claudication; cited from earlier work

platelet cGMP-inhibited phosphodiesterase, sequence (Q14432 whole entry): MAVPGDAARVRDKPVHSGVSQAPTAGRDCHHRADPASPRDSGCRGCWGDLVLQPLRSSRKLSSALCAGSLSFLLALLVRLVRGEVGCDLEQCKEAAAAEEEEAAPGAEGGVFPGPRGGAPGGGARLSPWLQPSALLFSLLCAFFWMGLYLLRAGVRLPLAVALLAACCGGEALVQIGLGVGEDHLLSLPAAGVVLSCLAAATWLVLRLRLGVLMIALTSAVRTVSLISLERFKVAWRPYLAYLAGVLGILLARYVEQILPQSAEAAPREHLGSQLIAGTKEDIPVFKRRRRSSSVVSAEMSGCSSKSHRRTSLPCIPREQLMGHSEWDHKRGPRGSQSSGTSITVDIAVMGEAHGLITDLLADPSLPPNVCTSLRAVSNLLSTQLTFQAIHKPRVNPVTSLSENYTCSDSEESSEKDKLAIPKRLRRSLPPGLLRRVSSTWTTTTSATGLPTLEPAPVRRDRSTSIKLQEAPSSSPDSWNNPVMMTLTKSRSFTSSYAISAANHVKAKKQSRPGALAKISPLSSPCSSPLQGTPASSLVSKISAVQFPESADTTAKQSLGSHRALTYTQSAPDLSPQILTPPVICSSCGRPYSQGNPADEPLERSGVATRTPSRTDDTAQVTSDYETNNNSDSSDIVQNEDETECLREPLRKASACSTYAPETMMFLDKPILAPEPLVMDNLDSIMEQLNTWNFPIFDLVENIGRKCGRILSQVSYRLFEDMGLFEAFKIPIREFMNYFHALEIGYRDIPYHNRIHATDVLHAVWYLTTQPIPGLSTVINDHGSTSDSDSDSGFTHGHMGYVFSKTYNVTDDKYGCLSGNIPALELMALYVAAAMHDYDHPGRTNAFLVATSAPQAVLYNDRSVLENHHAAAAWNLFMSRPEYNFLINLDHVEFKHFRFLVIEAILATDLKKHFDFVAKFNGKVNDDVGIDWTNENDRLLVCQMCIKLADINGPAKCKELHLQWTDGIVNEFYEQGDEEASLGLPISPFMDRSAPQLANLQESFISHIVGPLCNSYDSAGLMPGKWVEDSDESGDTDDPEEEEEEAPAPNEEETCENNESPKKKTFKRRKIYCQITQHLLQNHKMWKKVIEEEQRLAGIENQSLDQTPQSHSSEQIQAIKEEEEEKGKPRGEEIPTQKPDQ

Compound: c1cnc2c(c1)ccc1cccnc12 [[1,10]phenanthroline]
- pIC50 [1]: ~2.70

Compound: 9-methylene-4-(alkyl)-2,3,4,9-tetrahydro-1H-cyclopenta(b)quinoline
- pIC50 (platelets; agonist ADP, read-out: IC50s of inhibition of platelet granule secretion induced with ADP): 3.19
- pIC50 (platelets; agonist PMA, read-out: IC50s of inhibition of platelet granule secretion induced with PMA): 3.52
- pIC50 (platelets; agonist SFLLR, read-out: IC50s of inhibition of platelet granule secretion induced with SFLLR): 5.30
- pIC50 (platelets; agonist U-46619, read-out: IC50s of inhibition of platelet granule secretion induced with U-46619): 3.40
- Inhibition of thrombosis following laser-induced injury [2]: greater than 80%
- Activation of mouse platelets by several platelet agonists (mouse platelets): inhibits

Compound: O=C1CCc2cc(OCCCCc3nnnn3C3CCCCC3)ccc2N1 [cilostazol]
- Increase of distance of pain free walking [3]: up to 59%
